We go through 3 compounds from patent US20230265151A1, “GIP/GLP1 CO-AGONIST COMPOUNDS” (priority 2020, published 2023).

Common to all, as to assay type: cell-based
One experiment concerns the target T1, hGIPR (Homo sapiens, UniProt P48546).
T1 construct: expressed in transfected cells
T1 sequence (P48546 22-466): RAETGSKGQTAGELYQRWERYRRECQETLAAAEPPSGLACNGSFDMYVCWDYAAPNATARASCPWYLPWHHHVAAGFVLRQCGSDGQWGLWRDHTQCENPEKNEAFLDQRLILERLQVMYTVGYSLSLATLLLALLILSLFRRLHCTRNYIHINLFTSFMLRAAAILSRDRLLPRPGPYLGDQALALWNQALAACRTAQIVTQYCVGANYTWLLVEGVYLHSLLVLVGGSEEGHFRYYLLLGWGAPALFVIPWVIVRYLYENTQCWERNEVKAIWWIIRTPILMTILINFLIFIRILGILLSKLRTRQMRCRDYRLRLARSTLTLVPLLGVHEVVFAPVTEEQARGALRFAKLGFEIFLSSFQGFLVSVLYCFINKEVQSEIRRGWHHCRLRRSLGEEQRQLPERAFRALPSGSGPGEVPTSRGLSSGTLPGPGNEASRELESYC
Briefly: Functional cAMP formation (HTRF) in HEK-293 clonal cells expressing hGIPR, 0.1% bovine casein, without or with 1.0% human serum albumin. The conditions noted are these: for EC50: geometric mean; for Emax: read-out: hGIPR Emax, % ± SEM. The method, boiled down: (§1)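 Readings of the HTRF 665/620 nm ratio, which falls as cAMP rises, were converted to nM cAMP using a standard curve after 30 min peptide exposure at 37° C.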
(Cyclic AMP is a second messenger, typically raised through Gs and lowered through Gi signalling.)

The target of another experiment is T2, hGCGR (Homo sapiens, UniProt P47871).
T2 construct: expressed in transfected cells
Briefly: Functional cAMP formation (HTRF) in HEK-293 clonal cells expressing hGCGR, 0.1% bovine casein, without or with 1.0% human serum albumin. The method, boiled down:
as §1

Another experiment addresses hGLP-1R (Homo sapiens, UniProt P43220). Briefly: Functional cAMP formation (HTRF) in HEK-293 clonal cells expressing hGLP-1R, 0.1% bovine casein, without or with 1.0% human serum albumin. The arrangement: expressed in transfected cells. The note with it: for EC50: cAMP, read-out: hGLP-1R EC50, nM (SEM, n). The method, boiled down: as §1

SMILES strings stand for the structures. Read-outs that look alike come from different tables or passages of the source. *1 amine or outer side, *2 acyl side, *3 side chain or, on linkers, in order; H or OH if unused. Where a SMILES comes first, the peptide text is derived from it. Side-chain parts run from the residue outwards. [ ]: non-standard residue; d: D form. The star is where a group is joined. αMePhe(2-F) = C[C@](N)(Cc1ccccc1F)C(=O)O; γGlu = O=C(O)[C@H](CCC(=O)[*:2])N[*:1]; C14 diacid = O=C(O)CCCCCCCCCCCCC(=O)*; αMeY = C[C@](N)(Cc1ccc(O)cc1)C(=O)O; αMeL = CC(C)C[C@](C)(N)C(=O)O; Orn = NCCC[C@H](N)C(=O)O; AEEA = NCCOCCOCC(=O)O; Aib = CC(C)(N)C(=O)O

T2 sequence (P47871 26-477): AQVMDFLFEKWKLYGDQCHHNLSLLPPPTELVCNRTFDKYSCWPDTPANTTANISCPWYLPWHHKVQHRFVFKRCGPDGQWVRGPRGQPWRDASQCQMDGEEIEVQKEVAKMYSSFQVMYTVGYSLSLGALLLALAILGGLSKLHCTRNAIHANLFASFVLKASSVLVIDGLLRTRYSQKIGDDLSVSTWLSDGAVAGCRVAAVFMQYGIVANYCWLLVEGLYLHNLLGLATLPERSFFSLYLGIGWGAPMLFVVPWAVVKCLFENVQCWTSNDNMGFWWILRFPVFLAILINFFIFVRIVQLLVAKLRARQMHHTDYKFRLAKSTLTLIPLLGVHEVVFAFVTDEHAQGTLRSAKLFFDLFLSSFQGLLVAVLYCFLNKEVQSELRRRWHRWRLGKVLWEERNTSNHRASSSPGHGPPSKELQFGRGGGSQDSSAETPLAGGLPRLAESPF
Chain of hGLP-1R (P43220 24-463): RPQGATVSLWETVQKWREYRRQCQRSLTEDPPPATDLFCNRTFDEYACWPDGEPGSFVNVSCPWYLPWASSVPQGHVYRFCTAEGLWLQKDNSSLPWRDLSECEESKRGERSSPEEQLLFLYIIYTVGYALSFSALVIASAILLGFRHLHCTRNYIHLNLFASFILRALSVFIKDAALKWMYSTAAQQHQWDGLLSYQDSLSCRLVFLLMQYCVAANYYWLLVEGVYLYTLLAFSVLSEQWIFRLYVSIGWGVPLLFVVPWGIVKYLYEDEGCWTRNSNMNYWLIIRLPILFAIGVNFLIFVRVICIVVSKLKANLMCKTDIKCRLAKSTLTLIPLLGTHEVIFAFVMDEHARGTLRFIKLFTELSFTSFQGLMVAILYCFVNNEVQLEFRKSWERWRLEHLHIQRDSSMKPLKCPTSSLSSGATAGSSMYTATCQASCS

In general, EC50 refers to the midpoint of the concentration-response curve. In general, Emax refers to the size of the effect at its maximum, as opposed to the concentration needed. For `CC[C@H](C)[C@H](NC(=O)[C@H](CCCN)NC(=O)[C@H](CC(=O)O)NC(=O)[C@H](CC(C)C)NC(=O)[C@](C)(CC(C)C)NC(=O)[C@@H](NC(=O)[C@H](CO)NC(=O)[C@H](Cc1ccncc1)NC(=O)[C@H](CC(=O)O)NC(=O)[C@H](CO)NC(=O)[C@@H](NC(=O)[C@](C)(Cc1ccccc1F)NC(=O)[C@@H](NC(=O)CNC(=O)[C@H](CCC(=O)O)NC(=O)C(C)(C)NC(=O)[C@@H](N)Cc1ccc(O)cc1)[C@@H](C)O)[C@@H](C)O)[C@@H](C)CC)C(=O)N[C@@H](C)C(=O)N[C@@H](CCC(N)=O)C(=O)NC(C)(C)C(=O)N[C@@H](CCC(=O)O)C(=O)N[C@@H](Cc1ccccc1)C(=O)N[C@H](C(=O)N[C@@H](CCCCNC(=O)COCCOCCNC(=O)COCCOCCNC(=O)CC[C@H](NC(=O)CCCCCCCCCCOc1ccc(C(=O)O)cc1)C(=O)O)C(=O)N[C@@](C)(Cc1ccc(O)cc1)C(=O)N[C@@H](CC(C)C)C(=O)N[C@H](C(=O)N[C@@H](CCCCNC(=O)COCCOCCNC(=O)COCCOCCNC(=O)CC[C@H](NC(=O)CCCCCCCCCCOc1ccc(C(=O)O)cc1)C(=O)O)C(=O)NCC(=O)NCC(=O)N1CCC[C@H]1C(=O)N[C@@H](CO)C(=O)N[C@@H](CO)C(=O)NCC(=O)N[C@@H](C)C(=O)N1CCC[C@H]1C(=O)N1CCC[C@H]1C(=O)N1CCC[C@H]1C(=O)N[C@@H](CO)C(N)=O)[C@@H](C)CC)[C@@H](C)CC` [Example 286], the EC50 at hGIPR (hGIPR EC50, nM (SEM, n), 0.1% bovine casein and 1.0% human serum albumin, 37° C.) is 2.18 nM; on hGCGR (hGCGR EC50, nM (SEM, n), 0.1% bovine casein and 1.0% human serum albumin, 37° C., geometric mean), above 9950 nM; at hGCGR (hGCGR EC50, nM (SEM, n), cAMP, 37° C., 0.1% bovine casein (no human serum albumin), geometric mean), above 9950 nM. The Emax at hGLP-1R (HEK293, read-out: hGLP-1R Emax, % ± SEM, 0.1% bovine casein and 1.0% human serum albumin, 37° C., percent of maximal response to GLP-1(7-36)NH2) is 90.3%; at hGLP-1R (HEK293, read-out: hGLP-1R Emax, % ± SEM, cAMP, 37° C., 0.1% bovine casein, percent of maximal response to GLP-1(7-36)NH2, arithmetic mean) it was 110%.

As to `CC[C@H](C)[C@H](NC(=O)[C@H](CCCN)NC(=O)[C@H](CC(=O)O)NC(=O)[C@H](CC(C)C)NC(=O)[C@](C)(CC(C)C)NC(=O)[C@@H](NC(=O)[C@](C)(CO)NC(=O)[C@H](Cc1ccncc1)NC(=O)[C@H](CC(=O)O)NC(=O)[C@H](CO)NC(=O)[C@@H](NC(=O)[C@](C)(Cc1ccccc1F)NC(=O)[C@@H](NC(=O)CNC(=O)[C@H](CCC(=O)O)NC(=O)C(C)(C)NC(=O)[C@@H](N)Cc1ccc(O)cc1)[C@@H](C)O)[C@@H](C)O)[C@@H](C)CC)C(=O)N[C@@H](C)C(=O)N[C@@H](CCC(N)=O)C(=O)NC(C)(C)C(=O)N[C@@H](CCCCNC(=O)COCCOCCNC(=O)COCCOCCNC(=O)CC[C@H](NC(=O)CCCCCCCCCCCCC(=O)O)C(=O)O)C(=O)N[C@@H](Cc1ccccc1)C(=O)N[C@H](C(=O)N[C@H](CCC(=O)O)C(=O)N[C@@](C)(Cc1ccc(O)cc1)C(=O)N[C@@H](CC(C)C)C(=O)N[C@H](C(=O)N[C@@H](CCCCNC(=O)COCCOCCNC(=O)COCCOCCNC(=O)CC[C@H](NC(=O)CCCCCCCCCCCCC(=O)O)C(=O)O)C(=O)NCC(=O)NCC(=O)N1CCC[C@H]1C(=O)N[C@@H](CO)C(=O)N[C@@H](CO)C(=O)NCC(=O)N[C@@H](C)C(=O)N1CCC[C@H]1C(=O)N1CCC[C@H]1C(=O)N1CCC[C@H]1C(=O)N[C@@H](CO)C(N)=O)[C@@H](C)CC)[C@@H](C)CC` [Example 217], the EC50 at hGIPR (0.1% bovine casein and 1.0% human serum albumin, 37° C., read-out: hGIPR EC50, nM (SEM, n)) is 7.84 nM; on hGIPR (cAMP, incubated at 37° C., 0.1% bovine casein (no human serum albumin), read-out: hGIPR EC50, nM (SEM, n)) it was 0.0309 nM; on hGCGR (0.1% bovine casein and 1.0% human serum albumin, 37° C., geometric mean, read-out: hGCGR EC50, nM (SEM, n)) it was above 9950 nM; at hGCGR (cAMP, incubated at 37° C., 0.1% bovine casein (no human serum albumin), geometric mean, read-out: hGCGR EC50, nM (SEM, n)), above 9950 nM; on hGLP-1R (incubated at 37° C., 0.1% bovine casein (no human serum albumin), geometric mean), 0.436 nM. Also, the Emax on hGIPR (HEK293, 0.1% bovine casein and 1.0% human serum albumin, 37° C., percent of maximal response to GIP(1-42)NH2) was 62.7%; on hGIPR (HEK293, percent of maximal response to GIP(1-42)NH2, 37° C., 0.1% bovine casein, arithmetic mean), 95.5%; at hGLP-1R (HEK293, 0.1% bovine casein and 1.0% human serum albumin, 37° C., percent of maximal response to GLP-1(7-36)NH2, read-out: hGLP-1R Emax, % ± SEM), 118%; on hGLP-1R (HEK293, percent of maximal response to GLP-1(7-36)NH2, 37° C., 0.1% bovine casein, arithmetic mean, read-out: hGLP-1R Emax, % ± SEM), 88%.

Turning to `CC[C@H](C)[C@H](NC(=O)[C@H](CC(C)C)NC(=O)[C@](C)(Cc1ccc(O)cc1)NC(=O)[C@H](CCCCNC(=O)COCCOCCNC(=O)COCCOCCNC(=O)CC[C@H](NC(=O)CCCCCCCCCCCCC(=O)O)C(=O)O)NC(=O)[C@@H](NC(=O)[C@H](Cc1ccccc1)NC(=O)[C@H](CCC(=O)O)NC(=O)C(C)(C)NC(=O)[C@H](CCC(N)=O)NC(=O)[C@H](C)NC(=O)[C@H](CCC(N)=O)NC(=O)[C@H](CCCN)NC(=O)[C@H](CC(=O)O)NC(=O)[C@H](CC(C)C)NC(=O)[C@](C)(CC(C)C)NC(=O)[C@@H](NC(=O)C(C)(C)NC(=O)[C@@H](NC(=O)[C@H](CC(=O)O)NC(=O)[C@H](CO)NC(=O)[C@@H](NC(=O)[C@](C)(Cc1ccccc1F)NC(=O)[C@@H](NC(=O)CNC(=O)[C@H](CCC(=O)O)NC(=O)C(C)(C)NC(=O)[C@@H](N)Cc1ccc(O)cc1)[C@@H](C)O)[C@@H](C)O)C(C)C)[C@@H](C)CC)[C@@H](C)CC)C(=O)N[C@@H](CCCCNC(=O)COCCOCCNC(=O)COCCOCCNC(=O)CC[C@H](NC(=O)CCCCCCCCCCCCC(=O)O)C(=O)O)C(=O)NCC(=O)NCC(=O)N1CCC[C@H]1C(=O)N[C@@H](CO)C(=O)N[C@@H](CO)C(=O)NCC(=O)N[C@@H](C)C(=O)N1CCC[C@H]1C(=O)N1CCC[C@H]1C(=O)N1CCC[C@H]1C(=O)N[C@@H](CO)C(N)=O` [Example 390] (H-Y[Aib]EGT[αMePhe(2-F)]TSDV[Aib]I[αMeL]LD[Orn]QAQ[Aib]EFIK([AEEA-AEEA-γGlu-C14 diacid])[αMeY]LIK([AEEA-AEEA-γGlu-C14 diacid])GGPSSGAPPPS-NH2), the Emax is 89.3% at hGIPR (HEK293, cAMP, 37° C., 0.1% bovine casein and 1.0% human serum albumin, percent of maximal response to GIP(1-42)NH2); 94.6% at hGLP-1R (HEK293, cAMP, 37° C., 0.1% bovine casein and 1.0% human serum albumin, percent of maximal response to GLP-1(7-36)NH2, read-out: hGLP-1R Emax, % ± SEM); 97.7% at hGLP-1R (HEK293, cAMP, 37° C., 0.1% bovine casein, percent of maximal response to GLP-1(7-36)NH2, arithmetic mean, read-out: hGLP-1R Emax, % ± SEM). In addition, the EC50 at hGIPR (cAMP, 37° C., 0.1% bovine casein (no human serum albumin), read-out: hGIPR EC50, nM (SEM, n)) was 0.0187 nM; on hGCGR (cAMP, 37° C., 0.1% bovine casein (no human serum albumin), geometric mean, read-out: hGCGR EC50, nM (SEM, n)), above 9950 nM; at hGCGR (cAMP, 37° C., 0.1% bovine casein and 1.0% human serum albumin, geometric mean (SEM, n), read-out: hGCGR EC50, nM (SEM, n)) it was above 9950 nM; at hGLP-1R (37° C., 0.1% bovine casein (no human serum albumin), geometric mean) it was 0.209 nM; at hGLP-1R (37° C., 0.1% bovine casein and 1.0% human serum albumin, geometric mean (SEM, n)) it was 24.3 nM.
